In patent US20100168050A1, “COMPOUNDS HAVING ANTIANGIOGENIC ACTIVITY” (MEDESTEA INTERNAZIONALE S.P.A, priority 2004, published 2010):

Assays:
HUVEC = HUVEC apoptosis/necrosis, annexin V and propidium iodide staining; assay type: cell-based, human; settings: ATP 3 mM
Description: It is possible that the inhibition of the ATP-dependent pathway can induce the shift to another metabolic activity, as the glycolysis. […] The block of the HUVEC proliferation is further evidenced by the absence of cell apoptosis due to the treatment of the cells with the tested compounds, as reported in the FIG. 9 (the results are representative of 5 experiments). Only the treatment with ATP was able to induce about 4.5% PI positive, e.g. necrotic cells.
In the second series of experiments, we studied the differences in the apoptosis induction on human promyelocytic leukemia HL60 cells by ATP and by the inhibitors of the P2X7 receptors. Apoptotic cells and necrotic cells were analyzed by staining the cells with annexin V and propidium iodide (PI) (BD Pharmingen apoptosis kit, San Diego, Calif.). Briefly, an aliquot of 10^5 cells was incubated with annexin V-fluorescein isothiocyanate (FITC) and PI for 15 minutes at room temperature in the dark. The cells were immediately analyzed by FACScalibur (Becton Dickinson, Heidelberg, Germany). The emission/excitation wavelengths were 530/488 nm for annexin V FITC (FL1) and 640 nm/488 nm for PI (FL2). The necrotic cells were annexin V- and PI-positive, whereas apoptotic cells were annexin V-positive and PI-negative. The percentage of cells stained in each quadrant was quantified using the cellQuest software (BD Bioscience, San Josew, Calif.). […]

[1] = test system: Human endothelial Cells (HUVEC); assay: Proliferation assay, HUVEC counted in Burker chamber; assay type: cell-based
Protocol: Human endothelial Cells (HUVEC) were isolated from umbilical vein, counted and seeded in a constant number in a 96-well plate. The cells were cultured as described (Jaffe, E. A. (1984) Biology of Endothelial Cells, Martinus Nighoff Publisher, Boston, USA, pp. 1-260), with or without (control) VEGF (50 ng/ml), in the presence of o-ATP (100 μM), and o-ATP+VEGF. After 24 hours cultivation with or without stimulus, the cells were washed and counted with an optical microscope using a Burker chamber. The results are reported in FIG. 1 and represent the mean±SD of 10 experiments.

[2] = test system: human umbilical vein endothelial cells (HUVEC); assay: HUVEC cell growing number, crystal violet absorbance at 595 nm; assay type: cell-based
Protocol: HUVEC were isolated from human umbilical cord by collagenase treatment and cultured in 1% gelatine-coated flasks using endotoxin-free Medium 199, containing 20% heat-inactivated fetal bovine serum, 1% bovine retinal-derived growth factor, 90 microg/ml heparin, 100 IU/ml penicillin and 100 microg/ml streptomycin. All experiments were carried out with HUVEc at the passage 1-4.
(§1) We used oATP at the concentration of 500 microM. HUVEC were treated with oATP over night, washed and fixed with glutaraldeide 2% in PBS. The cells were colored with crystal violet 0.1%, washed and dried. The dye solubilization was performed with acetic acid 10% and the absorbance was measured spectrophotometrically at 595 nm, using a microplate reader. The optical density was proportional to the number of cells.
as §1, with “In” for “We used oATP at”, “first series” for “concentration”, “experiments we studied the proliferation of human umbilical vein endothelial cells (HUVEC), obtained as previously described (1). The” for “500 microM.”, “each of the compounds for 36 hours,” for “oATP over night,”

[3] = test system: PBMC transendothelial migration through a HUVEC monolayer; assay: Transendothelial migration assay, PBMC through HUVEC monolayer; assay type: cell-based, human
Protocol: VEGF is a prototypic angiogenetic factor which induces endothelial cell proliferation, angiogenesis and capillary permeability. The latter is evidenced by the assay of transendothelial migration. It is known that VEGF increases transendothelial migration. Migration assay was performed using a Transwell double chamber system (5 micrometer polycarbonate membrane). HUVEC (5×10^4 cells/well) were seeded on the filter, in the presence or absence of TNFα (200 U/ml) and oATP 500 microM. Freshly obtained PMBC (peripheral blood mononuclear cells) by means of fycoll from buffy-coat were added in the upper compartment and allowed to migrate over night to the lower chamber which contained RPMI and 10% fetal calf serum. […] Data represent mean±SEM of 7 experiments.

[4] = test system: RMA wild type (wt) murine lymphoma T cell line; assay: Cell apoptosis assay, annexin V/PI FACS; assay type: cell-based, mouse
Protocol: RMA wild type (wt) murine lymphoma T cell line (ATCC) was grown in RPMI 1640 supplemented with 10% heat inactivated fetal bovine serum, 100 U/ml penicillin, 100 microg/ml streptomycin.
Apoptosis was evaluated by FACS analysis, after staining with annexin-V FITC-conjugate to show the exposure of phosphatidyl serine on the external side of plasma membranes, and with propidium iodide (PI).
Two thousand RMA wt cells and lymphocytes were treated with or without different concentrations of oATP for 24 and 48 hours. The cells were then washed with PBS with Ca++ and Mg++ and stained.
Ten thousand cell/sample were analysed and the percentage of annexin V/PI positive cells was calculated with FCS-express software (DE NOVO Software).

[5] = test system: lymphocytes from buffy-coat (PMBC), activated or not with PHA; assay: Cell apoptosis assay, annexin V/PI FACS; assay type: cell-based; settings: oATP at high concentrations
Protocol: Lymphocytes were obtained from a buffy-coat by a fycoll gradient and depleted from monocytes by adherence. Lymphocytes were activated with Phytohaemoagglutinin A mitogen (PHA). Apoptosis was evaluated by FACS analysis, after staining with annexin-V FITC-conjugate to show the exposure of phosphatidyl serine on the external side of plasma membranes, and with propidium iodide (PI). Two thousand RMA wt cells and lymphocytes were treated with or without different concentrations of oATP for 24 and 48 hours. The cells were then washed with PBS with Ca++ and Mg++ and stained. Ten thousand cell/sample were analysed and the percentage of annexin V/PI positive cells was calculated with FCS-express software (DE NOVO Software).

RMA wt cells = assay: Cell cycle analysis, PI staining, FACScan; assay type: cell-based, mouse
Protocol: RMA wt cells were treated with different concentrations of oATP for 24 and 48 hours, then fixed for at least four hours in ice-cold 70% ethanol. Cells were stained with a solution containing NP-40, RNase and PI and cell cycle distribution was detected using FACScan (Becton Dickinson, San Jose, Calif.) and analyzed with FCS-express software.
Cell cycle progression of RMA wt cell line treated with different concentrations of oATP for 24 or 48 hours.

[6] = test system: RMA cells (T-cell lymphoma); assay: Tumor growth after subcutaneous RMA cell injection in C57BL/6 mice; assay type: in vivo, mouse
Description: RMA cells were derived from the Rausher leukemia virus-induced mouse T-cell lymphoma RBL-5 of B6 origin and maintained in RPMI 1640 medium, supplemented with fetal bovine serum, 1% penicillin/streptomycin and 1% glutamine (complete medium).
(§2) C57BL/6 female mice weighing about 18-20 g (8 week old) were used. The cells were washed twice with 0.9% NaCl and subcutaneously injected in each mouse in a volume of 100 microliters containing 7×10^4 cells. After 10 days from RMA cell injection, we treated the mice with oATP. Five groups of mice were studied (each of 7 mice): 1) controls, untreated; 2) locally (subcutaneously) (sc) treated with 0.5 mg of oATP; 3) locally (sc) treated with 1 mg oATP; 4) intraperitoneally treated with 1 mg oATP; 5) locally (sc) treated with 1 mg oATP for 3 days only.
(§3) The mice were observed until the 20th day from the tumor inoculation: they were weighed daily and the size of the tumor mass was daily measured.

[7] = Body weight of RMA tumor-bearing mice during treatment; assay type: in vivo, mouse; settings: during the different oATP treatments (0.5 or 1 mg sc, 1 mg ip)
Protocol: as §2, §3

[8] = test system: TNFalpha receptor 1 (TNFR1) on HUVEC; assay: Cytofluorometric assay of TNFalpha receptor expression on endothelial cells; assay type: cell-based, human
Description: In addition, oATP was cytofluorometrically assayed for its ability to modulate the expression of TNFalpha receptors on endothelial cells. As reported in the FIG. 9a, the use of human TNFalpha (100 U/ml) improved the expression of the TNFalpha receptor 1 (TNFR1) on HUVEC. […] However, oATP was able to downregulate the TNFalpha-induced increased expression of TNFR1.

[9] = test system: human promyelocytic leukemia HL60 cells; assay: HL60 apoptosis/necrosis, annexin V-FITC and PI staining; assay type: cell-based; settings: oATP 300 microM versus PPADS 50 microM and KN62 10 microM
Protocol: In the second series of experiments, we studied the differences in the apoptosis induction on human promyelocytic leukemia HL60 cells by ATP and by the inhibitors of the P2X7 receptors. Apoptotic cells and necrotic cells were analyzed by staining the cells with annexin V and propidium iodide (PI) (BD Pharmingen apoptosis kit, San Diego, Calif.). Briefly, an aliquot of 10^5 cells was incubated with annexin V-fluorescein isothiocyanate (FITC) and PI for 15 minutes at room temperature in the dark. The cells were immediately analyzed by FACScalibur (Becton Dickinson, Heidelberg, Germany). The emission/excitation wavelengths were 530/488 nm for annexin V FITC (FL1) and 640 nm/488 nm for PI (FL2). The necrotic cells were annexin V- and PI-positive, whereas apoptotic cells were annexin V-positive and PI-negative. The percentage of cells stained in each quadrant was quantified using the cellQuest software (BD Bioscience, San Josew, Calif.). […] FIG. 11 summarizes the effects of the different treatments on the apoptosis/necrosis induction in the HL60 cells.

macrophage cell lines = settings: Murgia et al. 1993; cited from earlier work
[10] = test system: microglia cells expressing P22/P2X7; settings: Ferrari et al. 1997; cited from earlier work
[11] = test system: rat paw inflammation (CFA); settings: WO 02/11737; cited from earlier work
[12] = group 3: locally (sc) 1 mg oATP

Nc1ncnc2c1ncn2[C@@H]1O[C@H](COP(=O)(O)OP(=O)(O)OP(=O)(O)O)[C@@H](O)[C@H]1O [ATP]
PI positive, e.g. necrotic cells (HUVEC): about 4.5%

Nc1ncnc2c1ncn2[C@@H](C=O)O[C@@H](C=O)COP(=O)(O)OP(=O)(O)OP(=O)(O)O [oATP, adenosine-5′-triphosphate-2′,3′-dialdehyde]
effect on HUVEC proliferative capacity compared with vasostatin ([1]; in vitro, HUVEC): higher than that induced by vasostatin | proliferative capacity of HUVEC ([1]; o-ATP 100 μM, 24 hours, even in the presence of a mitogen (VEGF 50 ng/ml)): significant reduction | cell growing number (HUVEC proliferation) ([2]; 36 hours, ATP 3 mM, oATP 300 microM, PPADS 50 microM, KN62 10 microM): maximal reduction | cell growing number (optical density) ([2]; oATP 500 microM over night): significantly reduced | non-stimulated PBMC transendothelial migration ([3]; addition of oATP, no TNFα): inhibited | TNFα-induced transendothelial migration of PBMC ([3]; oATP 500 microM, TNFα 200 U/ml, over night): significantly reduces | percentage of AnnexinV/PI positive cells ([4]; RMA wt, oATP 1 mM, 48 hours): strongly increases | apoptosis of RMA cells ([4]; oATP at high concentrations): able to induce apoptosis | apoptosis of lymphocytes [5]: not of lymphocytes | % G0/G1 (RMA wt cells; oATP 0.1 μM, 24 h): 48% | % G2/M (RMA wt cells; oATP 0.1 μM, 24 h): 19% | % S (RMA wt cells; oATP 0.1 μM, 24 h): 24% | % subG1 (RMA wt cells; oATP 0.1 μM, 24 h): 9% | % G0/G1 (RMA wt cells; oATP 0.1 μM, 48 h): 50% | % G2/M (RMA wt cells; oATP 0.1 μM, 48 h): 22% | % S (RMA wt cells; oATP 0.1 μM, 48 h): 24% | % subG1 (RMA wt cells; oATP 0.1 μM, 48 h): 4% | % G0/G1 (RMA wt cells; oATP 1 μM, 24 h): 38% | % G2/M (RMA wt cells; oATP 1 μM, 24 h): 10% | % S (RMA wt cells; oATP 1 μM, 24 h): 29% | % subG1 (RMA wt cells; oATP 1 μM, 24 h): 23% | % G0/G1 (RMA wt cells; oATP 1 μM, 48 h): 52% | % G2/M (RMA wt cells; oATP 1 μM, 48 h): 26% | % S (RMA wt cells; oATP 1 μM, 48 h): 19% | % subG1 (RMA wt cells; oATP 1 μM, 48 h): 3% | % G0/G1 (RMA wt cells; oATP 20 μM, 48 h): 50% | % G2/M (RMA wt cells; oATP 20 μM, 48 h): 19% | % S (RMA wt cells; oATP 20 μM, 48 h): 23% | % subG1 (RMA wt cells; oATP 20 μM, 48 h): 8% | % G0/G1 (RMA wt cells; oATP 0.1 mM, 24 h): 44% | % G2/M (RMA wt cells; oATP 0.1 mM, 24 h): 5% | % S (RMA wt cells; oATP 0.1 mM, 24 h): 20% | % subG1 (RMA wt cells; oATP 0.1 mM, 24 h): 31% | % G0/G1 (RMA wt cells; oATP 0.1 mM, 48 h): 33% | % G2/M (RMA wt cells; oATP 0.1 mM, 48 h): 20% | % S (RMA wt cells; oATP 0.1 mM, 48 h): 33% | % subG1 (RMA wt cells; oATP 0.1 mM, 48 h): 14% | % G0/G1 (RMA wt cells; oATP 1 mM, 24 h): 16% | % G2/M (RMA wt cells; oATP 1 mM, 24 h): 3% | % S (RMA wt cells; oATP 1 mM, 24 h): 6% | % subG1 (RMA wt cells; oATP 1 mM, 24 h): 75% | % G0/G1 (RMA wt cells; oATP 1 mM, 48 h): 44% | % G2/M (RMA wt cells; oATP 1 mM, 48 h): 7% | % S (RMA wt cells; oATP 1 mM, 48 h): 25% | % subG1 (RMA wt cells; oATP 1 mM, 48 h): 24% | consistency of the tumor mass obtained in 20 days [6, 12]: less solid than the tumor mass obtained in the other groups | tumor growth at 20 days from RMA cell injection [6, 12]: less evident than that observed in the other groups | tumor mass (arbitrary units) ([6]; group 3: locally (sc) 1 mg oATP, three days from the beginning of the treatment (until the 14th day)): did not significantly grow | tumor mass (arbitrary units) ([6]; group 5: locally (sc) 1 mg oATP for 3 days only, three days from the beginning of the treatment): did not significantly grow | tumor growth ([6]; local continuous treatment with 1 mg oATP): significantly slowing the tumor growth | body weights of the mice [7]: No significant differences | TNFalpha-induced increased expression of TNFR1 ([8]; human TNFalpha 100 U/ml plus oATP): downregulate | expression of TNFR1 on HUVEC ([8]; oATP alone): did not modify such expression | cell apoptosis induction on HL60 [9]: at better extent with respect to PPADS and KN62 | ATP-induced permeabilization of the plasma membrane (macrophage cell lines): able to block | IL-1β release (dependent on LPS) [10]: selectively inhibited | effect on CFA-induced unilateral rat paw inflammation [11]: anti-inflammatory and analgesic effect
